Among the data in patent US20190047966A1, “NOVEL COMPOUND AND PHARMACOLOGICALLY ACCEPTABLE SALT THEREOF” (MEIJI SEIKA PHARMA CO., LTD., priority 2016, published 2019) are Ki values, retold here.

For assay [1], the target named is human histamine H1 receptor (Homo sapiens, UniProt P35367). Description: Evaluation of Human H1 Receptor Affinity ([3H]pyrilamine binding). Further details: purchased PerkinElmer Inc; host or cells: CHO-K1. Conditions: inhibition constant Ki, CHO-K1 membrane preparation. Here is the method:
Test Example 1: Evaluation of Human H1 Receptor Affinity
Membrane preparation from recombinant CHO-K1 cell expressing the human histamine H1 receptor (PerkinElmer Inc.), radiolabeled ligand 1.2 nM [^3H]pyrilamine (PerkinElmer Inc.), and test compounds dissolved in DMSO were reacted at 25° C. for 3 hours in a buffering solution containing 50 mM tris-hydrochloric acid, pH 7.4, and 5 mM magnesium chloride on a 96 well plate, followed by filtration using a GF/B filter (PerkinElmer Inc.) pretreated with 0.3% polyethylenimine. The residue was washed four times with a buffering solution of 50 mM tris-hydrochloric acid, pH 7.4. Thereafter, a scintillation cocktail (MicroScint 20: PerkinElmer Inc.) was added to the GF/B filter, and the radioactivity of each well was measured using a liquid scintillation counter for 96-well (TopCount: PerkinElmer Inc.). The non-specific binding was evaluated in the presence of 1.0 μM pyrilamine. The inhibition constant Ki was calculated from the 50% inhibitory concentration (IC50 value) obtained in each test and the Kd value (1.1 nM) unique to this assay system, according to the Cheng-Prusoff equation.

In assay [2] the target is T1, human histamine H4 receptor (Homo sapiens, UniProt Q9H3N8).
T1 construct: purchased PerkinElmer Inc; host or cells: CHO-K1
T1 sequence (Q9H3N8 whole entry): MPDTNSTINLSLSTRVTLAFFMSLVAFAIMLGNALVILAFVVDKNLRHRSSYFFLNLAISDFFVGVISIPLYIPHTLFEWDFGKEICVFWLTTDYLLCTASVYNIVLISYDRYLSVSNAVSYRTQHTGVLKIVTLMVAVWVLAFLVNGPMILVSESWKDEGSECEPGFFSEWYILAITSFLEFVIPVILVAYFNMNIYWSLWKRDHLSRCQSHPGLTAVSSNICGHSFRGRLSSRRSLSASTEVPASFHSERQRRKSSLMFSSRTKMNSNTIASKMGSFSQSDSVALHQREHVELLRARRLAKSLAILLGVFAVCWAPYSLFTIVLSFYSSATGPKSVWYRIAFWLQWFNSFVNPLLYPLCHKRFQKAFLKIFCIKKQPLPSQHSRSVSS
As to the kind of experiment: Evaluation of Human H4 Receptor Affinity ([3H]histamine binding). As to conditions: inhibition constant Ki, CHO-K1 membrane preparation, read-out: Evaluation of H4 Receptor Affinity. Here is the method:
Test Example 2: Evaluation of Human H4 Receptor Affinity
Membrane preparation from recombinant CHO-K1 cell expressing the human histamine H4 receptor (PerkinElmer Inc.), radiolabeled ligand 8.2 nM [^3H]histamine (PerkinElmer Inc.), and compounds dissolved in DMSO were reacted at 25° C. for 90 minutes in a buffering solution containing 50 mM tris-hydrochloric acid, pH 7.4, and 1.25 mM EDTA on a 96 well plate, followed by filtration using a GF/B filter (PerkinElmer Inc.) pretreated with 0.3% polyethylenimine. The residue was washed four times with a buffering solution of 50 mM tris-hydrochloric acid, pH 7.4. Thereafter, a scintillation cocktail (MicroScint 20: PerkinElmer Inc.) was added to the GF/B filter, and the radioactivity of each well was measured using a liquid scintillation counter for 96-well (TopCount: PerkinElmer Inc.). The non-specific binding was evaluated in the presence of 1.0 μM histamine. The inhibition constant Ki was calculated from the 50% inhibitory concentration (IC50 value) obtained in each test and the Kd value (5.7 nM) unique to this assay system, according to the Cheng-Prusoff equation.

pKi: −log10 of the molar value. Counter-ions that a name gives are not always drawn.

Sequence of human histamine H1 receptor (P35367 whole entry): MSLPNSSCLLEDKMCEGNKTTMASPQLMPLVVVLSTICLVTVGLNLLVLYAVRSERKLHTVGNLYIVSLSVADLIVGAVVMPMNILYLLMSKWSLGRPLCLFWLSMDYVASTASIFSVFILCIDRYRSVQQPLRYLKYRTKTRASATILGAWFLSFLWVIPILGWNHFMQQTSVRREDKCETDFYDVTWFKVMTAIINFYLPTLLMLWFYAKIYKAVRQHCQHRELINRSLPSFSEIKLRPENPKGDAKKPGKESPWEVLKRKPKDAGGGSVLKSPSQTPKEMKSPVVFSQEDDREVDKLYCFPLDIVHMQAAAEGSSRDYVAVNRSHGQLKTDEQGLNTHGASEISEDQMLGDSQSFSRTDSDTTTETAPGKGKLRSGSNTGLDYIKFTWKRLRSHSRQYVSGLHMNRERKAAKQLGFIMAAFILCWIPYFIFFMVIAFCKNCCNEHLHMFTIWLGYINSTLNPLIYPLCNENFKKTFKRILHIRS

Consider `Nc1nc2c(c(N3CCN(CCOCCO)CC3)n1)CCc1cc(OCc3ccc(Cl)cc3)ccc1-2` [Example 8, 2-(2-(4-(2-amino-8-((4-chlorobenzyl)oxy)-5,6-dihydrobenzo[h]quinazolin-4-yl)piperazin-1-yl)ethoxy)ethan-1-ol], for which the pKi in assay [1] and in assay [2] was more than 7.00 each time.
For the compound `Nc1nc2c(c(N3CCN(CCOCCOCCO)CC3)n1)CCc1cc(OCc3ccc(Cl)cc3)ccc1-2` [Example 9, 2-(2-(2-(4-(2-amino-8-((4-chlorobenzyl)oxy)-5,6-dihydrobenzo[h]quinazolin-4-yl)piperazin-1-yl)ethoxy)ethoxy)ethan-1-ol], the pKi in assay [1] and in assay [2] was more than 7.00 each time.
For `N#CCOCCOCCN1CCN(c2nc(N)nc3c2CCc2cc(OCc4ccc(Cl)cc4)ccc2-3)CC1` [Example 10, 2-(2-(2-(4-(2-amino-8-((4-chlorobenzyl)oxy)-5,6-dihydrobenzo[h]quinazolin-4-yl)piperazin-1-yl)ethoxy)ethoxy)acetonitrile], the pKi in assay [1] and in assay [2] was more than 7.00 each time.
On to `Nc1nc2c(c(N3CCN(CCO[C@H]4CC[C@@H](C(=O)O)CC4)CC3)n1)CCc1cc(OCc3ccc(Cl)cc3)ccc1-2` [Example 24, cis-4-(2-(4-(2-amino-8-((4-chlorobenzyl)oxy)-5,6-dihydrobenzo[h]quinazolin-4-yl)piperazin-1-yl)ethoxy)cyclohexane-1-carboxylic acid], for which the pKi is more than 7.00 in assay [1] and 6.30 to 7.00 in assay [2].
Regarding `Nc1nc2c(c(N3CCN(CCOC[C@H]4CC[C@@H](C(=O)O)CC4)CC3)n1)CCc1cc(OCc3ccc(OC(F)(F)F)cc3)ccc1-2` [Example 27, cis-4-((2-(4-(2-amino-8-((4-(trifluoromethoxy)benzyl)oxy)-5,6-dihydrobenzo[h]quinazolin-4-yl)piperazin-1-yl)ethoxy)methyl)cyclohexane-1-carboxylic acid dihydrochloride], the pKi in assay [1] and in assay [2] was more than 7.00 throughout.
For `Nc1nc2c(c(N3CCN(CCO[C@H]4CC[C@H](C(=O)O)CC4)CC3)n1)CCc1cc(OCc3ccc(Cl)cc3)ccc1-2` [Example 28, trans-4-(2-(4-(2-amino-8-((4-chlorobenzyl)oxy)-5,6-dihydrobenzo[h]quinazolin-4-yl)piperazin-1-yl)ethoxy)cyclohexane-1-carboxylic acid], the pKi in assay [1] and in assay [2] was more than 7.00 each time.
Consider `Nc1nc2c(c(N3CCN(CCO[C@H]4C[C@H](C(=O)O)C4)CC3)n1)CCc1cc(OCc3ccc(OC(F)(F)F)cc3)ccc1-2` [Example 30, trans-3-(2-(4-(2-amino-8-((4-(trifluoromethoxy)benzyl)oxy)-5,6-dihydrobenzo[h]quinazolin-4-yl)piperazin-1-yl)ethoxy)cyclobutane-1-carboxylic acid], for which the pKi in assay [1] and in assay [2] was more than 7.00 throughout.
For `CC1(C(=O)O)CC(OCCN2CCN(c3nc(N)nc4c3CCc3cc(OCc5ccc(OC(F)(F)F)cc5)ccc3-4)CC2)C1` (stereo not drawn) [Example 31, cis-3-(2-(4-(2-amino-8-((4-(trifluoromethoxy)benzyl)oxy)-5,6-dihydrobenzo[h]quinazolin-4-yl)piperazin-1-yl)ethoxy)-1-methylcyclobutane-1-carboxylic acid], the pKi was more than 7.00 in assay [1] and 6.30 to 7.00 in assay [2].
Consider `Nc1nc2c(c(N3CCN(CCO[C@H]4C[C@@H](C(N)=O)C4)CC3)n1)CCc1cc(OCc3ccc(OC(F)(F)F)cc3)ccc1-2` [Example 33, cis 3-(2-(4-(2-amino-8-((4-(trifluoromethoxy)benzyl)oxy)-5,6-dihydrobenzo[h]quinazolin-4-yl)piperazin-1-yl)ethoxy)cyclobutane-1-carboxamide], for which the pKi in assay [1] and in assay [2] was more than 7.00 throughout.
In the case of `Nc1nc2c(c(N3CCN(CCO[C@H]4C[C@H](C(N)=O)C4)CC3)n1)CCc1cc(OCc3ccc(OC(F)(F)F)cc3)ccc1-2` [Example 34, trans-3-(2-(4-(2-amino-8-((4-(trifluoromethoxy)benzyl)oxy)-5,6-dihydrobenzo[h]quinazolin-4-yl)piperazin-1-yl)ethoxy)cyclobutane-1-carboxamide], the pKi in assay [1] and in assay [2] was more than 7.00 throughout.
Turning to `CN1CCN(c2nc(N)nc3c2CCc2cc(NS(=O)(=O)CCCOc4ccccc4)ccc2-3)CC1` [Example 40, N-(2-amino-4-(4-methylpiperazin-1-yl)-5,6-dihydrobenzo[h]quinazolin-8-yl)-3-phenoxypropane-1-sulfonamide], the pKi in assay [1] and in assay [2] was more than 7.00 throughout.
Consider `CN1CCN(c2nc(N)nc3c2CCc2cc(NS(=O)(=O)c4ccccc4)ccc2-3)CC1` [Example 41, N-(2-amino-4-(4-methylpiperazin-1-yl)-5,6-dihydrobenzo[h]quinazolin-8-yl)benzenesulfonamide], for which the pKi in assay [1] and in assay [2] was 6.30 to 7.00 in each case.
In the case of `CN1CCN(c2nc(N)nc3c2CCc2cc(NS(=O)(=O)c4cccc(Cl)c4)ccc2-3)CC1` [Example 43, N-(2-amino-4-(4-methylpiperazin-1-yl)-5,6-dihydrobenzo[h]quinazolin-8-yl)-3-chlorobenzenesulfonamide], the pKi in assay [1] and in assay [2] was 6.30 to 7.00 throughout.
Regarding `CN1CCN(c2nc(N)nc3c2CCc2cc(NS(=O)(=O)c4ccc(Cl)s4)ccc2-3)CC1` [Example 44, N-(2-amino-4-(4-methylpiperazin-1-yl)-5,6-dihydrobenzo[h]quinazolin-8-yl)-5-chlorothiophene-2-sulfonamide], the pKi in assay [1] and in assay [2] was 6.30 to 7.00 each time.
`CN1CCN(c2nc(N)nc3c2CCc2cc(NS(=O)(=O)c4ccc(Cl)c(F)c4)ccc2-3)CC1` [Example 45, N-(2-amino-4-(4-methylpiperazin-1-yl)-5,6-dihydrobenzo[h]quinazolin-8-yl)-4-chloro-3-fluorobenzenesulfonamide]: the pKi in assay [1] is more than 7.00; in assay [2], 6.30 to 7.00.
As to `CN1CCN(c2nc(N)nc3c2CCc2cc(NS(=O)(=O)c4ccc(Cl)cc4F)ccc2-3)CC1` [Example 46, N-(2-amino-4-(4-methylpiperazin-1-yl)-5,6-dihydrobenzo[h]quinazolin-8-yl)-4-chloro-2-fluorobenzenesulfonamide], the pKi was more than 7.00 in assay [1] and 6.30 to 7.00 in assay [2].
Taken in the same sequence, the figures for `CN1CCN(c2nc(N)nc3c2CCc2cc(NS(=O)(=O)c4ccc(C#N)cc4)ccc2-3)CC1` [Example 47, N-(2-amino-4-(4-methylpiperazin-1-yl)-5,6-dihydrobenzo[h]quinazolin-8-yl)-4-cyanobenzenesulfonamide] were 6.30 to 7.00 and 6.30 to 7.00.
Take `CN1CCN(c2nc(N)nc3c2CCc2cc(NS(=O)(=O)Cc4ccccc4)ccc2-3)CC1` [Example 48, N-(2-amino-4-(4-methylpiperazin-1-yl)-5,6-dihydrobenzo[h]quinazolin-8-yl)-1-phenylmethanesulfonamide]: the pKi in assay [1] and in assay [2] was 6.30 to 7.00 in each case.
As to `CN1CCN(c2nc(N)nc3c2CCc2cc(NS(=O)(=O)c4ccc(Cl)nc4)ccc2-3)CC1` [Example 49, N-(2-amino-4-(4-methylpiperazin-1-yl)-5,6-dihydrobenzo[h]quinazolin-8-yl)-6-chloropyridine-3-sulfonamide], the pKi in assay [1] and in assay [2] was 6.30 to 7.00 each time.
Take `CN1CCN(c2nc(N)nc3c2CCc2cc(NS(=O)(=O)c4ccc(F)cc4)ccc2-3)CC1` [Example 50, N-(2-amino-4-(4-methylpiperazin-1-yl)-5,6-dihydrobenzo[h]quinazolin-8-yl)-4-fluorobenzenesulfonamide]: the pKi in assay [1] and in assay [2] was more than 7.00 throughout.
For `CN1CCN(c2nc(N)nc3c2CCc2cc(NS(=O)(=O)CCc4ccccc4)ccc2-3)CC1` [Example 51, N-(2-amino-4-(4-methylpiperazin-1-yl)-5,6-dihydrobenzo[h]quinazolin-8-yl)-6-phenylethane-1-sulfonamide], the pKi in assay [1] and in assay [2] was more than 7.00 in each case.
Consider `CN1CCN(c2nc(N)nc3c2CCc2cc(NS(=O)(=O)CCCc4ccccc4)ccc2-3)CC1` [Example 52, N-(2-amino-4-(4-methylpiperazin-1-yl)-5,6-dihydrobenzo[h]quinazolin-8-yl)-3-phenylpropane-1-sulfonamide], for which the pKi in assay [1] and in assay [2] was more than 7.00 in each case.
On to `COc1ccc(S(=O)(=O)Nc2ccc3c(c2)CCc2c-3nc(N)nc2N2CCN(C)CC2)cc1` [Example 53, N-(2-amino-4-(4-methylpiperazin-1-yl)-5,6-dihydrobenzo[h]quinazolin-8-yl)-4-methoxybenzenesulfonamide], for which the pKi is more than 7.00 in assay [1] and 6.30 to 7.00 in assay [2].
